Experimental data published in patent US11298422B2, “Treating tumors with TTFields and an aurora kinase inhibitor” (Novocure Limited, priority 2018, dated 2022).

Experiments:
[1] = test system: primary glioblastoma cell line HT12347; assay: Normalized cell count, primary glioblastoma cells; format: cell-based; conditions: primary glioblastoma cell-lines, compared to each treatment alone; Mann-Whitney-U-test, p<0.01
Protocol: In addition to U87-MG cells, primary tumor-cell lines were established from glioblastoma tissue taken intraoperatively. TTFields (1.6 V/cm RMS, 200 kHz) were applied for 72 hours using the InovitroTM system. AZD1152 was added to the media in concentrations of up to 100 nmol/l. Cell counts, cell cycle and clonogenic potential were determined at the end of treatment. Primary tumor-cell-lines were analyzed. In addition, MLN8237, an Aurora A kinase inhibitor, was tested in concentrations up to 50 nmol/l for the treatment of U87-MG and primary tumor-cell lines to further establish Aurora kinase inhibition as a target for combination therapy with TTFields. […] FIGS. 5A and 5B show the normalized cell counts after treatment with TTFields and AZD1152, alone and in combination, on U87-MG (FIG. 5A) and primary glioblastoma cell line HT12347 (FIG. 5B) at the indicated AZD1152 concentration and […] frequency. The exemplary box plots show the normalized cell count after treatment with AZD1152 alone, TTFields alone, and combination of AZD1152 and TTFields. “***” marks significant differences where p<0.001. […] FIGS. 8A-8B show the normalized cell counts after treatment with TTFields and MLN8237, alone and in combination, on U87-MG (FIG. 8A) and primary glioblastoma cell line HT12347 (FIG. 8B). […]

[2] = test system: primary glioblastoma cell line HT12347; assay: Light microscopy, primary glioblastoma cells; format: cell-based; conditions: HT12347, TTFields and MLN8237 combination vs control and each alone (FIGS. 10A-10D)
Protocol: Cells were treated with control, AZD1152, TTFields, or a combination of both. […] FIGS. 10A-10D show exemplary light microscopy images of primary glioblastoma cells HT12347 after the following treatment: 10A: control; 10B: after […] treatment; 10C: after treatment with MLN8237 alone; 10D: after treatment with TTFields and MLN8237.

[3] = test system: glioblastoma cell line HT 12347; assay: PI (propium iodide) staining of DNA content, primary glioblastoma cells; format: cell-based; conditions: HT 12347, TTFields combined with MLN8237 (FIGS. 9A-9E)
Excerpt: FIGS. 9A-9E show exemplary PI (propium iodide) staining results showing DNA content after treatment with TTFields alone, […] alone, and in combination in glioblastoma cell line HT 12347 with corresponding cell cycle histograms. FIG. 9A is a summary, with 2n in light gray, 4n in dark gray, and r>4n in black; FIG. 9B is a cell cycle histogram for the control; FIG. 9C is a cell cycle histogram for […] treatment alone; FIG. 9D is a cell cycle histogram for MLN8237 alone; and FIG. 9E is a cell cycle histogram for TTFields combined with MLN8237.

U87-MG = assay: Normalized cell count, U87-MG (additional study); format: cell-based, human; conditions: compared to each treatment alone, Mann-Whitney-U-test, p<0.01
Protocol: In addition to U87-MG cells, primary tumor-cell lines were established from glioblastoma tissue taken intraoperatively. TTFields (1.6 V/cm RMS, 200 kHz) were applied for 72 hours using the Inovitro™ system. AZD1152 was added to the media in concentrations of up to 100 nmol/l. Cell counts, cell cycle and clonogenic potential were determined at the end of treatment. Primary tumor-cell-lines were analyzed. In addition, MLN8237, an Aurora A kinase inhibitor, was tested in concentrations up to 50 nmol/l for the treatment of U87-MG and primary tumor-cell lines to further establish Aurora kinase inhibition as a target for combination therapy with TTFields. […] FIGS. 8A-8B show the normalized cell counts after treatment with TTFields and MLN8237, alone and in combination, on U87-MG (FIG. 8A) and primary glioblastoma cell line HT12347 (FIG. 8B). The exemplary box plots show the normalized cell count after treatment with TTFields alone, MLN8237 alone, and combination of MLN8237 and TTFields in U87 cells ([…]), and in HT12347 glioblastoma cells (FIG. 8B). The greatest reduction in the percentage of living cells in relation to the control is shown with the combination of TTFields and MLN8237.

**Q.** With `COc1cc(Nc2ncc3c(n2)-c2ccc(Cl)cc2C(c2c(F)cccc2OC)=NC3)ccc1C(=O)O` [MLN8237, Alisertib] as the compound, how does the “cell numbers after combined treatment of MLN8237 and TTFields” value [1] read?
**A.** significant decrease of cell numbers

**Q.** And the “number of cells in light microscopy images” value [2]?
**A.** lowest number of cells

**Q.** What about the “multinuclear and polyploid cells (PI staining, DNA content)” value [3] of the same compound?
**A.** higher number of multinuclear and polyploid cells

**Q.** What about the “cell numbers after combined treatment of MLN8237 and TTFields” value (U87-MG) of the same compound?
**A.** significant decrease of cell numbers
